Reference: PubChem BioAssay AID1963845 (Molecular Pharmacology Branch, DTP, NCI, 2024)

Test system: 429239-143-T-J1-PDC complex spheroid viability
Test: Anticancer human tumor 429239-143-T-J1-PDC patient-derived small cell lung carcinoma cell line growth inhibition [POLQ]
Conditions: for IC50: curve of first compound; for viability, T/C: stronger effect = lower value; active = viability on the fitted dose curve at most 10% of control; inactive = the rest
Outline: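 PDC + HUVEC + MSC complex spheroids; POLQ inhibitors ± partner drugs; top conc. at/near clinical Cmax, else 10 microM (SN-38 1 microM), half-log dilutions; 37 degrees C, 5% CO2.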

[1] = second compound 0.0316 µM, first compound 0.0316 µM
[2] = second compound 0.0316 µM, first compound 0.1 µM
[3] = second compound 0.0316 µM, first compound 0.316 µM
[4] = second compound 0.0316 µM, first compound 1 µM
[5] = second compound 0.0316 µM, first compound 3.16 µM
[6] = second compound 0.0316 µM, first compound 10 µM
[7] = second compound 0.1 µM, first compound 0.0316 µM
[8] = second compound 0.1 µM, first compound 0.1 µM
[9] = second compound 0.1 µM, first compound 0.316 µM
[10] = second compound 0.1 µM, first compound 1 µM
[11] = second compound 0.1 µM, first compound 3.16 µM
[12] = second compound 0.1 µM, first compound 10 µM
[13] = second compound 0.316 µM, first compound 0.0316 µM
[14] = second compound 0.316 µM, first compound 0.1 µM
[15] = second compound 0.316 µM, first compound 0.316 µM
[16] = second compound 0.316 µM, first compound 1 µM
[17] = second compound 0.316 µM, first compound 3.16 µM
[18] = second compound 0.316 µM, first compound 10 µM
[19] = second compound 1 µM, first compound 0.0316 µM
[20] = second compound 1 µM, first compound 0.1 µM
[21] = second compound 1 µM, first compound 0.316 µM
[22] = second compound 1 µM, first compound 1 µM
[23] = second compound 1 µM, first compound 3.16 µM
[24] = second compound 1 µM, first compound 10 µM
[25] = second compound 3.16 µM, first compound 0.0316 µM
[26] = second compound 3.16 µM, first compound 0.1 µM
[27] = second compound 3.16 µM, first compound 0.316 µM
[28] = second compound 3.16 µM, first compound 1 µM
[29] = second compound 3.16 µM, first compound 3.16 µM
[30] = second compound 3.16 µM, first compound 10 µM
[31] = second compound 10 µM, first compound 0.0316 µM
[32] = second compound 10 µM, first compound 0.1 µM
[33] = second compound 10 µM, first compound 0.316 µM
[34] = second compound 10 µM, first compound 1 µM
[35] = second compound 10 µM, first compound 3.16 µM
[36] = second compound 10 µM, first compound 10 µM
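Also: luminescence signal used as surrogate measure of viable cells; spheroids exposed to compounds for seven days before readout.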
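For viability, T/C in this document: 100% = DMSO vehicle control viability as luminescence relative to vehicle.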

C=CC(=O)N1CCN(c2nc(=O)n(-c3c(C)ccnc3C(C)C)c3nc(-c4c(O)cccc4F)c(F)cc23)C(C)C1 (centres undefined) + Cc1cccc(N(C)C(=O)C2C(O)CCN2c2nc(C)cc(C(F)(F)F)c2C#N)c1
inactive: viability, T/C [1] 97.2% | viability, T/C [2] 85% | viability, T/C [3] 102% | viability, T/C [4] 97.5% | viability, T/C [5] 96% | viability, T/C [6] 98.7% | viability, T/C [7] 93.2% | viability, T/C [8] 96.8% | viability, T/C [9] 108% | viability, T/C [10] 89.8% | viability, T/C [11] 92.9% | viability, T/C [12] 109% | viability, T/C [13] 105% | viability, T/C [14] 94.3% | viability, T/C [15] 107% | viability, T/C [16] 97.8% | viability, T/C [17] 108% | viability, T/C [18] 116% | viability, T/C [19] 88.8% | viability, T/C [20] 93.4% | viability, T/C [21] 104% | viability, T/C [22] 88.5% | viability, T/C [23] 103% | viability, T/C [24] 104% | viability, T/C [25] 95.5% | viability, T/C [26] 88% | viability, T/C [27] 86.6% | viability, T/C [28] 101% | viability, T/C [29] 104% | viability, T/C [30] 122% | viability, T/C [31] 98.8% | viability, T/C [32] 85.3% | viability, T/C [33] 94.4% | viability, T/C [34] 97.9% | viability, T/C [35] 102% | viability, T/C [36] 100%
> 10 µM: IC50 (second compound 0.0316 µM) | IC50 (second compound 0.1 µM) | IC50 (second compound 0.316 µM) | IC50 (second compound 1 µM) | IC50 (second compound 3.16 µM) | IC50 (second compound 10 µM)

CCc1cc2c(N3CCc4c(cc(Cn5ccnc5)cc4-c4cn(C)nc4C(F)(F)F)C3=O)ccnc2c(OC)n1 + Cc1cccc(N(C)C(=O)C2C(O)CCN2c2nc(C)cc(C(F)(F)F)c2C#N)c1
> 10 µM: IC50 (second compound 0.0316 µM) | IC50 (second compound 0.1 µM) | IC50 (second compound 0.316 µM) | IC50 (second compound 1 µM) | IC50 (second compound 3.16 µM)
inactive: viability, T/C [1] 117% | viability, T/C [2] 102% | viability, T/C [3] 98.2% | viability, T/C [4] 88.4% | viability, T/C [5] 85.3% | viability, T/C [6] 49.8% | viability, T/C [7] 103% | viability, T/C [8] 113% | viability, T/C [9] 93.2% | viability, T/C [10] 89.1% | viability, T/C [11] 85.7% | viability, T/C [12] 57.6% | viability, T/C [13] 116% | viability, T/C [14] 97.8% | viability, T/C [15] 96.8% | viability, T/C [16] 86% | viability, T/C [17] 78.3% | viability, T/C [18] 56.6% | viability, T/C [19] 107% | viability, T/C [20] 95.4% | viability, T/C [21] 89.2% | viability, T/C [22] 87.8% | viability, T/C [23] 86.7% | viability, T/C [24] 56.6% | viability, T/C [25] 104% | viability, T/C [26] 108% | viability, T/C [27] 96.5% | viability, T/C [28] 95.6% | viability, T/C [29] 77.7% | viability, T/C [30] 50.8% | viability, T/C [31] 111% | viability, T/C [32] 91.8% | viability, T/C [33] 104% | viability, T/C [34] 96.5% | viability, T/C [35] 72.2% | viability, T/C [36] 46.1%
8.42 µM: IC50 (second compound 10 µM)
